US20140050677A1, “Personal care and medicinal products incorporating bound organosulfur groups” (priority 2006, published 2014)
Entries after “also recorded” stand apart in the source; their conditions may differ. Read-outs that look alike come from different tables or passages of the source.

Legend:
[1] = cited from earlier work; for breath AMS and acetone production: after consumption; for time of disappearance from breath: after garlic consumption
[2] = cited from earlier work; for metabolism in blood: disappearing in the process; for Reaction in Blood Half-life: in vitro
[3] = in vitro, in the presence of cysteine; cited from earlier work
[4] = after fresh garlic (e.g. 25 g) or pure allicin (60 mg); cited from earlier work
[5] = test system: plaque; assay: Diluted allyl mercaptan poured over the toothbrush bristles (Applicant); type: in vivo; details: 1/200 in distilled water on toothbrush, a week of use
From the text: Because allyl mercaptan and propyl mercaptan are water soluble, it is easier to experiment with them than with diallyl disulfide or dipropyl disulfide (which are an oils).

[6] = test system: leukemia cell cultures; details: co-administered to reduce glutathione; cited from earlier work
[7] = test system: 13 types of bacteria; details: cited from earlier work
[8] = test system: cytochrome P-450 enzymes (e.g. CYP2E1) and flavin-containing monooxygenases; details: cited from earlier work
[9] = test system: pro-inflammatory cytokines (e.g. IL-1, TNF-alpha and IL-10); details: cited from earlier work
[10] = test system: plaque, mouth sores; assay: Evaluation of the antimicrobial toothpaste by Applicant and evaluators; type: in vivo; details: as active ingredient of experimental toothpastes
Protocol: I decided to next try mixing it with the toothpaste that I normally use by squeezing out the contents of a tube of Arm and Hammer Dental Care Toothpaste into a bowl, mixing in 10 ml (2 teaspoons) of 1/200 diluted allyl mercaptan, and then returning the toothpaste to the tube. […] Mixing with a conventional toothpaste provides an adequate carrier for the allium related compound. More generally, of course, any orally acceptable carrier suitable for application to the teeth may be used. […] This includes the carriers used in commercially available toothpastes, tooth powders, or other dentifrice products.
The resulting toothpaste has no significant “garlic” smell or taste. It left the mouth feeling very clean, so clean that unwaxed dental floss “squeaks” when slid up and down the side of each tooth.
Several friends and acquaintances were willing to try the toothpaste and provide feedback. Under a “Nondisclosure and Produce Evaluation Agreement” I supplied them with free samples to evaluate. The agreement specified that the samples are not for sale, that the inventive aspects of the samples are confidential, and that the samples have no warranty.
A commercial version of the toothpaste (using onion oil as the active ingredient) is now being manufactured under license by Viola Vitalis corporation of Dhaka, Bangladesh (a company that is partially owned by the applicant).

[11] = test system: Cu2^+ induced LDL oxidation; details: cited from earlier work
[12] = test system: NFkB; details: macrophages, cited from earlier work
[13] = test system: acetaminophen poisoning; details: mice, cited from earlier work
[14] = test system: total glutathione level of cells; details: in vitro administration of SAMC; cited from earlier work
[15] = during the first hour after consumption; cited from earlier work
[16] = test system: trypsin enzyme inhibitor; details: cysteine 2% by weight, soy flour heated at 65 degrees C. for 1 hour; cited from earlier work
[17] = cited from earlier work
[18] = test system: nematodes; details: cited from earlier work
[19] = test system: E-coli O157:H7; details: cited from earlier work
[20] = target: NFkB signal transduction proteins p50 and P65 (Homo sapiens, UniProt P19838+Q04206); details: measured with a nitric oxide probe; cited from earlier work
[21] = without nitrosothiol formation; cited from earlier work
[22] = test system: glutathione; details: daily dosage of 1000 mg, multiple myeloma patients; cited from earlier work
[23] = test system: liver glutathione level; details: cited from earlier work

C=CCSSC=CC[S+]([O-])CC=C (mixture of isomers) [ajoene]
breath AMS and acetone production [1]: produce both breath AMS and acetone | metabolism in blood [2]: metabolize directly in blood to allyl mercaptan

C=CCSC [AMS, allyl methyl sulfide]
time of disappearance from breath [1]: ~20 h

C=CCS[S+]([O-])CC=C (centres unmarked) [Allicin, DiAllylThioSulfinate]
Reaction with Cysteine Half-life [3]: <1 min | detectability in blood, urine, or stool [4]: undetectable | Reaction in Blood Half-life [2]: <1 min | time for metabolism to allyl mercaptan ([2]; red blood cells exposed to allicin): less than one minute

C=CCS [AllylSH, AllylThiol]
plaque [5]: reduction in plaque | time of disappearance from breath [1]: ≤ 1 h | Reaction with Cysteine Half-life [3]: 80 min

CCCCS(=N)(=O)CCC(N)C(=O)O (centres unmarked) [BSO, buthionine sulfoximine]
cytotoxicity of chemotherapeutic arsenicals [6]: increase the cytotoxicity

O=C(N[C@H](CO)[C@H](O)c1ccc([N+](=O)[O-])cc1)C(Cl)Cl [Chloramphenicol]
average zone of inhibition [7]: 20 mm | species inhibited [7]: 12/13

C=CCSSCC=C [DADS, Diallyl Disulfide]
activity of the enzymes producing allicin from DADS [8]: up to 121 pmol/min/pmol CYP2D6 | conversion of DADS to allicin ([8]; in 30 minutes): approximately 30% | breath AMS and acetone production [1]: produce both breath AMS and acetone | Reaction with Cysteine Half-life [3]: 45 min | expression of pro-inflammatory cytokines [9]: inhibit the expression | metabolism in blood [2]: metabolize directly in blood to allyl mercaptan | Reaction in Blood Half-life [2]: 60 min

C=CCSCC=C [DAS]
breath AMS and acetone production [1]: only produces breath acetone

CCCSSCCC [DPDS, di-n-propyl disulfide]
performance relative to the allyl mercaptan toothpaste [10]: performed similarly | expression of pro-inflammatory cytokines [9]: inhibit the expression

C=CCSC[C@H](NC(C)=O)C(=O)O [N-acetyl-S-allylcysteine]
effect on Cu2^+ induced LDL oxidation [11]: significantly reduce

N[C@@H](CSN=O)C(=O)O [S-Nitrosocysteine]
donor concentration that nearly completely inhibits the activation of NFkB ([12]; nitric oxide donor): 1 micro mole

C=CCSC[C@H](N)C(=O)O [S-allylcysteine]
effect on Cu2^+ induced LDL oxidation [11]: significantly reduce | breath AMS and acetone production [1]: produces no breath AMS or acetone

C=CCSSC[C@H](N)C(=O)O [SAMC, S-AllylMercaptoCysteine]
effect on Cu2^+ induced LDL oxidation [11]: significantly reduce | breath AMS and acetone production [1]: produce both breath AMS and acetone | protection from acetaminophen poisoning, pretreatment ([13]; pretreatment): protect mice from acetaminophen poisoning | protection from acetaminophen, post treatment ([13]; single dose 200 mg/kg shortly after exposure): protective | total glutathione level of cells [14]: significantly increase; also recorded: significant increases the total glutathione level | metabolism in blood [2]: metabolize directly in blood to allyl mercaptan | Reaction in Blood Half-life [2]: 3 min

[AsH3] [arsenic]
fraction excreted directly from the liver to the bile [15]: ~40%

N[C@@H](CS)C(=O)O [cysteine, Cysteine]
deactivation of the trypsin enzyme inhibitor [16]: over 90% | pKa [17]: approximately 8.5

C=CCSSSCC=C [diallyl trisulfide]
breath AMS and acetone production [1]: produce both breath AMS and acetone | metabolism in blood [2]: metabolize directly in blood to allyl mercaptan

CCCS[S+]([O-])CCC (centres unmarked) [dipropyl thiosulfinate, Dipropyl Thiosulfinate]
nematicidal activity ranking [18]: most effective compound found

C=CCS[S+](C)[O-] (centres unmarked) [methyl allyl thiosulfinate]
effectiveness against E-coli O157:H7 [19]: effective

CS[S+](C)[O-] (centres unmarked) [methyl methane thiosulfinate, Methyl methanethiosulfinate]
effectiveness against E-coli O157:H7 [19]: effective

[N]=O [nitric oxide]
concentration that inhibited DNA binding activity of p50 and P65 [20]: 20-100 nano mole | half life in circulation [21]: about 5 seconds | concentration that nearly completely inhibits the activation of NFkB [12]: less than 1 micro-mole

O=C1O[C@H]([C@@H](O)CO)C(O)=C1O [vitamin C, ascorbic acid]
mean percentage decrease of glutathione [22]: 60% | cytotoxicity of chemotherapeutic arsenicals [6]: increase the cytotoxicity

S-allylcysteine sulfoxide [alliin]
effect on Cu2^+ induced LDL oxidation [11]: significantly reduce

sodium arsenate
liver glutathione level ([23]; protein deficient (6%) rats, unexposed controls 74): 134 micrograms per gram | liver glutathione level ([23]; well fed rats (18% protein), unexposed controls 88): 123 micrograms per gram
